Experiment: on-resin lactamisation, Asp side-chain COOH (C-terminal residue, anchored via Rink amide) + alpha-NH2 of N-terminal Dap(Boc); HATU/DIEA 1.05:2.1 equiv, overnight; then TFA cleavage
Settings: 22-membered ring, NMP, 57.0 mM; for ring closure, product found: scale: 1 = cyclic product is largest ESI-MS signal, 0 = linear; for ring closure, conversion by HPLC: scale: % crude HPLC purity, 320 nm area of tallest peak or peak cluster
[1] = from CC(C)(C)OC(=O)NC[C@H](N)C(=O)NCC(=O)N[C@@H](CNC(=O)c1cnc2ccccc2n1)C(=O)NCC(=O)N[C@@H](CNC(=O)c1cnc2ccccc2n1)C(=O)N[C@@H](CNC(=O)c1cnc2ccccc2n1)C(=O)N[C@@H](CC(=O)O)C(N)=O
[2] = from CC(C)(C)OC(=O)NC[C@H](N)C(=O)N[C@@H](CNC(=O)c1cnc2ccccc2n1)C(=O)N[C@@H](CNC(=O)c1cnc2ccccc2n1)C(=O)NCC(=O)NCC(=O)NCC(=O)N[C@@H](CC(=O)O)C(N)=O
[3] = from CC(C)(C)OC(=O)NC[C@H](N)C(=O)N[C@@H](CNC(=O)c1cnc2ccccc2n1)C(=O)NCC(=O)N[C@@H](CNC(=O)c1cnc2ccccc2n1)C(=O)NCC(=O)N[C@@H](CNC(=O)c1cnc2ccccc2n1)C(=O)N[C@@H](CC(=O)O)C(N)=O
[4] = from CC(C)(C)OC(=O)NC[C@H](N)C(=O)NCC(=O)NCC(=O)N[C@@H](CNC(=O)c1cnc2ccccc2n1)C(=O)N[C@@H](CNC(=O)c1cnc2ccccc2n1)C(=O)NCC(=O)N[C@@H](CC(=O)O)C(N)=O
[5] = from CC(C)(C)OC(=O)NC[C@H](N)C(=O)NCC(=O)NCC(=O)N[C@@H](CNC(=O)c1cnc2ccccc2n1)C(=O)NCC(=O)N[C@@H](CNC(=O)c1cnc2ccccc2n1)C(=O)N[C@@H](CC(=O)O)C(N)=O
[6] = from CC(C)(C)OC(=O)NC[C@H](N)C(=O)N[C@@H](CNC(=O)c1cnc2ccccc2n1)C(=O)NCC(=O)N[C@@H](CNC(=O)c1cnc2ccccc2n1)C(=O)NCC(=O)NCC(=O)N[C@@H](CC(=O)O)C(N)=O
[7] = from CC(C)(C)OC(=O)NC[C@H](N)C(=O)N[C@@H](CNC(=O)c1cnc2ccccc2n1)C(=O)N[C@@H](CNC(=O)c1cnc2ccccc2n1)C(=O)N[C@@H](CNC(=O)c1cnc2ccccc2n1)C(=O)NCC(=O)NCC(=O)N[C@@H](CC(=O)O)C(N)=O
[8] = from CC(C)(C)OC(=O)NC[C@H](N)C(=O)NCC(=O)N[C@@H](CNC(=O)c1cnc2ccccc2n1)C(=O)N[C@@H](CNC(=O)c1cnc2ccccc2n1)C(=O)NCC(=O)N[C@@H](CNC(=O)c1cnc2ccccc2n1)C(=O)N[C@@H](CC(=O)O)C(N)=O
[9] = from CC(C)(C)OC(=O)NC[C@H](N)C(=O)N[C@@H](CNC(=O)c1cnc2ccccc2n1)C(=O)NCC(=O)NCC(=O)N[C@@H](CNC(=O)c1cnc2ccccc2n1)C(=O)NCC(=O)N[C@@H](CC(=O)O)C(N)=O
[10] = from CC(C)(C)OC(=O)NC[C@H](N)C(=O)N[C@@H](CNC(=O)c1cnc2ccccc2n1)C(=O)NCC(=O)NCC(=O)NCC(=O)N[C@@H](CNC(=O)c1cnc2ccccc2n1)C(=O)N[C@@H](CC(=O)O)C(N)=O
[11] = from CC(C)(C)OC(=O)NC[C@H](N)C(=O)N[C@@H](CNC(=O)c1cnc2ccccc2n1)C(=O)NCC(=O)N[C@@H](CNC(=O)c1cnc2ccccc2n1)C(=O)N[C@@H](CNC(=O)c1cnc2ccccc2n1)C(=O)NCC(=O)N[C@@H](CC(=O)O)C(N)=O

NC[C@@H]1NC(=O)C[C@@H](C(N)=O)NC(=O)[C@H](CNC(=O)c2cnc3ccccc3n2)NC(=O)[C@H](CNC(=O)c2cnc3ccccc3n2)NC(=O)CNC(=O)[C@H](CNC(=O)c2cnc3ccccc3n2)NC(=O)CNC1=O
ring closure, product found [1]: 0 | ring closure, conversion by HPLC [1]: < 39

NC[C@@H]1NC(=O)C[C@@H](C(N)=O)NC(=O)CNC(=O)CNC(=O)CNC(=O)[C@H](CNC(=O)c2cnc3ccccc3n2)NC(=O)[C@H](CNC(=O)c2cnc3ccccc3n2)NC1=O
ring closure, product found [2]: 1 | ring closure, conversion by HPLC [2]: 35

NC[C@@H]1NC(=O)C[C@@H](C(N)=O)NC(=O)[C@H](CNC(=O)c2cnc3ccccc3n2)NC(=O)CNC(=O)[C@H](CNC(=O)c2cnc3ccccc3n2)NC(=O)CNC(=O)[C@H](CNC(=O)c2cnc3ccccc3n2)NC1=O
ring closure, product found [3]: 1 | ring closure, conversion by HPLC [3]: 24

NC[C@@H]1NC(=O)C[C@@H](C(N)=O)NC(=O)CNC(=O)[C@H](CNC(=O)c2cnc3ccccc3n2)NC(=O)[C@H](CNC(=O)c2cnc3ccccc3n2)NC(=O)CNC(=O)CNC1=O
ring closure, product found [4]: 1 | ring closure, conversion by HPLC [4]: 60

NC[C@@H]1NC(=O)C[C@@H](C(N)=O)NC(=O)[C@H](CNC(=O)c2cnc3ccccc3n2)NC(=O)CNC(=O)[C@H](CNC(=O)c2cnc3ccccc3n2)NC(=O)CNC(=O)CNC1=O
ring closure, product found [5]: 1 | ring closure, conversion by HPLC [5]: 76

NC[C@@H]1NC(=O)C[C@@H](C(N)=O)NC(=O)CNC(=O)CNC(=O)[C@H](CNC(=O)c2cnc3ccccc3n2)NC(=O)CNC(=O)[C@H](CNC(=O)c2cnc3ccccc3n2)NC1=O
ring closure, product found [6]: 1 | ring closure, conversion by HPLC [6]: 39

NC[C@@H]1NC(=O)C[C@@H](C(N)=O)NC(=O)CNC(=O)CNC(=O)[C@H](CNC(=O)c2cnc3ccccc3n2)NC(=O)[C@H](CNC(=O)c2cnc3ccccc3n2)NC(=O)[C@H](CNC(=O)c2cnc3ccccc3n2)NC1=O
ring closure, product found [7]: 1 | ring closure, conversion by HPLC [7]: 25

NC[C@@H]1NC(=O)C[C@@H](C(N)=O)NC(=O)[C@H](CNC(=O)c2cnc3ccccc3n2)NC(=O)CNC(=O)[C@H](CNC(=O)c2cnc3ccccc3n2)NC(=O)[C@H](CNC(=O)c2cnc3ccccc3n2)NC(=O)CNC1=O
ring closure, product found [8]: 0 | ring closure, conversion by HPLC [8]: < 34

NC[C@@H]1NC(=O)C[C@@H](C(N)=O)NC(=O)CNC(=O)[C@H](CNC(=O)c2cnc3ccccc3n2)NC(=O)CNC(=O)CNC(=O)[C@H](CNC(=O)c2cnc3ccccc3n2)NC1=O
ring closure, product found [9]: 1 | ring closure, conversion by HPLC [9]: 53

NC[C@@H]1NC(=O)C[C@@H](C(N)=O)NC(=O)[C@H](CNC(=O)c2cnc3ccccc3n2)NC(=O)CNC(=O)CNC(=O)CNC(=O)[C@H](CNC(=O)c2cnc3ccccc3n2)NC1=O
ring closure, product found [10]: 1 | ring closure, conversion by HPLC [10]: 64

NC[C@@H]1NC(=O)C[C@@H](C(N)=O)NC(=O)CNC(=O)[C@H](CNC(=O)c2cnc3ccccc3n2)NC(=O)[C@H](CNC(=O)c2cnc3ccccc3n2)NC(=O)CNC(=O)[C@H](CNC(=O)c2cnc3ccccc3n2)NC1=O
ring closure, product found [11]: 1 | ring closure, conversion by HPLC [11]: 81

From article PMC6208650
